Earlier results in US20150174247A1, “ORAL PHARMACEUTICAL PREPARATION OF ARIPIPRAZOLE” (MARUISHI PHARMACEUTICAL CO., LTD., priority 2012, published 2015).

## O=C1CCc2ccc(OCCCCN3CCN(c4cccc(Cl)c4Cl)CC3)cc2N1 [aripiprazole, 7-{4-[4-(2,3-dichlorophenyl)-1-piperazinyl]-butoxy}-3,4-dihydro-2(1H)-quinolinone]
Acidic range (pH 4.5 or less)
  solubility in acidic range: highly soluble
Neutral (pH 5) or higher pH range
  solubility in neutral or higher pH range: less soluble
